Experimental data from ChEMBL document CHEMBL5725356, “Anti-fibrotic pyridinones” (2017).

Test: ET-1 Assay: Fibroblasts (primary human lung and dermal, HFL-1, 3T3 etc) are seeded in 96-well plates at ~15000 cells/well and serum starved for 0-48 hours. After media exchange, compounds serially diluted in DMSO are added to the cells. After a brief incubation of ~30 min, stimulants (TGFb, serum, LPA etc) are added followed by further incubation for 16-48 hours. Media is then harvested and stored frozen in plate format for later endothelin-1 (ET-1) determination by ELISA. Toxicity measurements are made using the ATPlite kit (Perkin-Elmer). ET-1 is quantified using an ELISA kit (R&D Systems). The amount of ET-1 produced in the assay wells are back-calculated using the ELISA standard. The ability of a compound to inhibit ET-1 production is typically analyzed by fitting dose-response curves to a 4-parameter logistic function to obtain an EC50 value.
Conditions: HFL1
With `NS(=O)(=O)c1ccc(-c2ccc(=O)n(-c3cccc(C(F)(F)F)c3)c2)cc1` the EC50 was > 200 µM.
With `Cn1cc(-c2cn(-c3ccc(OC(F)(F)F)cc3)c(=O)c3c2ncn3C)cn1` the EC50 was < 50 µM.
In the case of `CCCOC(=O)Nc1cc(=O)n(-c2ccc(OC(F)(F)F)cc2)cc1-c1ccc(F)cc1`, the EC50 is reported as > 200 µM.
For `C[C@H]1CCC(=O)N(c2ccccc2)C1`, the EC50 was > 200 µM.
With `O=c1ccc(C(F)(F)F)cn1-c1cncnc1` the EC50 was > 200 µM.
With `CC(C)NC(=O)n1cc(-c2ccc(=O)n(-c3ccccc3)c2)cn1` the EC50 was “in the range around 125 µM”.
With `O=c1ccc(-c2ccc(F)cc2)cn1-c1ccccc1Cl` the EC50 was > 200 µM.
With `CN1C(=O)COc2c(-c3ccc(F)cc3)cn(-c3ccc(OC(F)(F)F)cc3)c(=O)c21` the EC50 was > 200 µM.
With `O=c1c2[nH]ccc2c(-c2cn[nH]c2)cn1-c1ccc(OC(F)(F)F)cc1` the EC50 was < 50 µM.
In the case of `CC(=O)Nc1cccc(-n2cc(Br)ccc2=O)c1`, the EC50 is reported as > 200 µM.
With `CC(=O)Nc1cc(=O)n(-c2ccc(OC(F)(F)F)cc2)cc1-c1cnn(C)c1` the EC50 was > 200 µM.
For `CNc1cc(=O)n(-c2ccc(OC(F)(F)F)cc2)cc1-c1cnn(C)c1`, the EC50 was > 200 µM.
In the case of `Cn1cc(-c2cn(-c3ccc(OC(F)(F)F)cc3)c(=O)cc2NCc2ccc(Cl)cc2Cl)cn1`, the EC50 is reported as < 50 µM.
In the case of `O=c1ccc(-c2ccc(F)cc2)cn1-c1ccccc1F`, the EC50 is reported as “in the range around 125 µM”.
For `CCOc1ccc(-n2cc(-c3cnn(C)c3)c(NCc3ccc(F)cc3F)cc2=O)c(C)c1`, the EC50 was < 50 µM.
For `O=c1ccc(C2CCC2)cn1-c1ccccc1`, the EC50 was > 200 µM.
With `COC(=O)Nc1cc(=O)n(-c2ccc(OC(F)(F)F)cc2)cc1-c1ccc(F)cc1` the EC50 was > 200 µM.
In the case of `CCOc1ccc(-n2cc(-c3cn[nH]c3)c3cc[nH]c3c2=O)c(C)c1`, the EC50 is reported as < 50 µM.
In the case of `CC(C)c1ccc(=O)n(-c2ccccc2)c1`, the EC50 is reported as > 200 µM.
In the case of `Cc1cc(=O)n(-c2ccc(C(F)(F)F)cc2)cc1-c1cnn(C)c1`, the EC50 is reported as “in the range around 125 µM”.
For `Cc1cc(=O)n(-c2ccc(OC(F)(F)F)cc2)cc1-c1ccc2c(c1)OCC(=O)N2`, the EC50 was “in the range around 125 µM”.
For `O=c1c2c(c(-c3cn[nH]c3)cn1-c1ccc(OC(F)(F)F)cc1)CCCC2`, the EC50 was “in the range around 125 µM”.
With `Cc1cc(=O)n(-c2ccc(OC(F)(F)F)cc2)cc1C` the EC50 was > 200 µM.
In the case of `N#Cc1cc(=O)n(-c2ccc(OC(F)(F)F)cc2)cc1-c1ccc(F)cc1`, the EC50 is reported as > 200 µM.
In the case of `Cn1cc(-c2cn(-c3ccc(OC(F)(F)F)cc3)c(=O)cc2Oc2cc(Cl)cc(C#N)c2)cn1`, the EC50 is reported as > 200 µM.
For `CCCNC(=O)c1cc(=O)n(-c2ccc(OC(F)(F)F)cc2)cc1-c1cnn(C)c1`, the EC50 was > 200 µM.
With `CC(=O)Nc1cccc(-n2cc(-c3ccccc3)c(C)cc2=O)c1` the EC50 was > 200 µM.
In the case of `COCCOc1ccc(Oc2cc(=O)n(-c3ccc(OC(F)(F)F)cc3)cc2-c2cnn(C)c2)cc1`, the EC50 is reported as “in the range around 125 µM”.
In the case of `O=c1c(-c2ccc(F)cc2)c(-c2ccc(OC(F)(F)F)cc2)c1=O`, the EC50 is reported as < 50 µM.
With `Cc1cc(=O)n(-c2ccc(OC(F)(F)F)cc2)cc1-c1c(C)nn(C)c1C` the EC50 was “in the range around 125 µM”.
With `O=c1ccc(-c2cnn(Cc3ccccc3)c2)cn1-c1ccccc1` the EC50 was “in the range around 125 µM”.
With `Cc1nc2c(=O)n(-c3ccc(OC(F)(F)F)cc3)cc(-c3cnn(C)c3)c2o1` the EC50 was < 50 µM.
In the case of `Cn1cc(-c2cn(-c3ccc(OC(F)(F)F)cc3)c(=O)cc2NCc2ccc(F)cc2F)cn1`, the EC50 is reported as < 50 µM.
In the case of `CN(Cc1ccccc1)c1cc(=O)n(-c2ccc(OC(F)(F)F)cc2)cc1-c1cnn(C)c1`, the EC50 is reported as < 50 µM.
For `Cc1cc(=O)n(-c2ccc(OC(F)(F)F)cc2)cc1-c1cscn1`, the EC50 was “in the range around 125 µM”.
With `Cn1cc(-c2cn(-c3ccc(OC(F)(F)F)cc3)c(=O)cc2NCc2ccccn2)cn1` the EC50 was < 50 µM.
With `Cc1cc(=O)n(-c2ccc(Cl)cc2)cc1-c1ccc(F)cc1` the EC50 was > 200 µM.
For `Cn1cc(-c2cn(-c3ccc(OC(F)(F)F)cc3)c(=O)c3ncn(Cc4ccccc4)c23)cn1`, the EC50 was > 200 µM.
For `O=c1ccc(-c2cn[nH]c2)cn1-c1cccc(C(F)(F)F)c1`, the EC50 was > 200 µM.
For `Cn1cc(-c2cn(-c3ccc(Cl)cc3)c(=O)cc2Oc2ccccc2)cn1`, the EC50 was < 50 µM.
In the case of `Cc1cc(=O)n(-c2ccc(OC(F)(F)F)cc2)cc1-c1cccc(Cl)c1`, the EC50 is reported as “in the range around 125 µM”.
In the case of `O=c1ccc(Br)cn1-c1cccc(F)c1`, the EC50 is reported as > 200 µM.
In the case of `O=c1ncc(-c2ccc(F)cc2)cn1-c1ccccc1`, the EC50 is reported as “in the range around 125 µM”.
In the case of `CCOc1ccc(-c2c(-c3ccc(F)cc3)c(=O)c2=O)c(C)c1`, the EC50 is reported as < 50 µM.
In the case of `Cc1cc(=O)n(-c2ccc(OC(F)(F)F)cc2)cc1C(F)(F)F`, the EC50 is reported as > 200 µM.
In the case of `Cc1cc(=O)n(-c2ccc(Cl)cc2C)cc1-c1ccccc1`, the EC50 is reported as “in the range around 125 µM”.
With `CCCNC(=O)Nc1cc(=O)n(-c2ccc(OC(F)(F)F)cc2)cc1-c1ccc(F)cc1` the EC50 was > 200 µM.
For `Cn1cc(-c2cn(-c3ccc(OC(F)(F)F)cc3)c(=O)cc2NCc2ncccn2)cn1`, the EC50 was > 200 µM.
With `Cc1ccc(F)c(-c2ccccc2)c1` the EC50 was > 200 µM.
In the case of `CCn1nc2c(-c3ccc(F)cc3)cn(-c3ccc(OC(F)(F)F)cc3)c(=O)c2n1`, the EC50 is reported as > 200 µM.
In the case of `CCn1ccc2c(=O)n(-c3ccc(OC(F)(F)F)cc3)cc(-c3ccc(F)cc3)c21`, the EC50 is reported as < 50 µM.
In the case of `Cc1ccc(=S)n(-c2ccc(OC(F)(F)F)cc2)c1`, the EC50 is reported as “in the range around 125 µM”.
For `Cc1cc(=O)n(-c2ccc(OC(F)(F)F)cc2)cc1-c1ccc2[nH]c(=O)oc2c1`, the EC50 was > 200 µM.
In the case of `Cc1ccc(=O)n(Cc2ccccc2)c1`, the EC50 is reported as > 200 µM.
With `Cc1cc(=O)n(-c2cccc(C(N)=O)c2)cc1-c1ccc(F)cc1` the EC50 was > 200 µM.
In the case of `O=c1c2c(ccn2Cc2ccccc2)c(-c2ccc(F)cc2)cn1-c1ccc(OC(F)(F)F)cc1`, the EC50 is reported as > 200 µM.
For `Cn1cc(-c2cn(-c3ccc(OC(F)(F)F)cc3)c(=O)cc2N2CCc3ccccc3C2)cn1`, the EC50 was “in the range around 125 µM”.
With `Cc1cc(=O)n(-c2ccc3c(c2)OCCO3)cc1-c1cnn(C)c1` the EC50 was > 200 µM.
With `Cn1cc(-c2cnc(=O)n(-c3ccc(OC(F)(F)F)cc3)c2)cn1` the EC50 was > 200 µM.
For `CCOc1ccc(-n2cc(C(C)=O)ccc2=O)c(C)c1`, the EC50 was > 200 µM.
For `Cc1cn(-c2ccccc2)c(=O)c2c1CCCC2`, the EC50 was “in the range around 125 µM”.
With `CCOc1ccc(-n2cc(-c3cnn(C)c3)c(N(C)Cc3ccccc3)cc2=O)c(C)c1` the EC50 was < 50 µM.
In the case of `CCOC(=O)Nc1cc(=O)n(-c2ccc(OC(F)(F)F)cc2)cc1-c1ccc(F)cc1`, the EC50 is reported as > 200 µM.
In the case of `O=C(Nc1cc(=O)n(-c2ccc(OC(F)(F)F)cc2)cc1-c1ccc(F)cc1)OCc1ccccc1`, the EC50 is reported as > 200 µM.
With `Cc1cc(=O)n(-c2ccc(OC(F)(F)F)cc2)cc1-c1ccc2c(c1)oc(=O)n2CCO` the EC50 was “in the range around 125 µM”.
With `N#Cc1ccc(-n2cc(-c3cn[nH]c3)c3nccnc3c2=O)cc1` the EC50 was > 200 µM.
In the case of `CN1CCC(Oc2cc(=O)n(-c3ccc(OC(F)(F)F)cc3)cc2-c2ccc(F)cc2)CC1`, the EC50 is reported as < 50 µM.
With `CCOc1ccc(-n2cc(C(F)(F)F)ccc2=O)c(C)c1` the EC50 was “in the range around 125 µM”.
For `CNC(=O)c1cccc(-n2cc(-c3ccc(F)cc3)c(C)cc2=O)c1`, the EC50 was “in the range around 125 µM”.
With `Cn1cc(-c2cn(-c3ccc(OC(F)(F)F)cc3)c(=O)cc2OCCN2CCCC2)cn1` the EC50 was “in the range around 125 µM”.
In the case of `CCOc1ccc(CNc2cc(=O)n(-c3ccc(OC(F)(F)F)cc3)cc2-c2cnn(C)c2)cc1`, the EC50 is reported as < 50 µM.
For `Cc1cc(=O)n(-c2ccc3c(c2)OCCO3)cc1-c1ccc(F)cc1`, the EC50 was > 200 µM.
For `CCOCCn1ccc2c(-c3cn[nH]c3)cn(-c3ccc(OC(F)(F)F)cc3)c(=O)c21`, the EC50 was < 50 µM.
For `O=c1c2nc[nH]c2c(-c2ccc(F)cc2)cn1-c1ccc(OC(F)(F)F)cc1`, the EC50 was > 200 µM.
For `O=c1ccc(-c2cn[nH]c2)cn1-c1ccc(F)cc1`, the EC50 was “in the range around 125 µM”.
For `Cc1cc(=O)n(-c2ccc(OC(F)(F)F)cc2)cc1-c1cccc2c1NC(=O)CO2`, the EC50 was > 200 µM.
In the case of `O=c1ccc(-c2ccc(F)cc2)cn1-c1cccc(C(F)(F)F)c1`, the EC50 is reported as “in the range around 125 µM”.
For `Cc1nc2ccn(-c3ccc(OC(F)(F)F)cc3)c(=O)c2s1`, the EC50 was > 200 µM.
With `Cc1n[nH]c(C)c1-c1ccc(=O)n(-c2cccc(F)c2)c1` the EC50 was > 200 µM.
With `Cc1cc(=O)n(-c2cccc(C(F)(F)F)c2)cc1-c1ccc(F)cc1` the EC50 was “in the range around 125 µM”.
For `CCOc1ccc(-n2cc(-c3ccnnc3)c3nn(CC)nc3c2=O)c(C)c1`, the EC50 was < 50 µM.
In the case of `Cc1c(-c2ccc(=O)n(-c3ccc(OC(F)(F)F)cc3)c2)cnn1C`, the EC50 is reported as < 50 µM.
In the case of `COc1cccc(-n2cc(-c3cccc(Cl)c3)ccc2=O)c1`, the EC50 is reported as < 50 µM.
With `Cn1cc(-c2cn(-c3ccc(OC(F)(F)F)cc3)c(=O)cc2NCc2ccccc2)cn1` the EC50 was < 50 µM.
With `CC(=O)c1ccc(=O)n(-c2ccc(Cl)cc2)c1` the EC50 was > 200 µM.
In the case of `CC(C)n1cc(-c2cn(-c3ccc(OC(F)(F)F)cc3)c(=O)c3c2ncn3C)cn1`, the EC50 is reported as < 50 µM.
For `CC(=O)c1ccc(=O)n(-c2ccccc2Cl)c1`, the EC50 was “in the range around 125 µM”.
For `Cc1ccc(=S)n(-c2cccc(F)c2)c1`, the EC50 was > 200 µM.
With `COc1ccc(CN(C)c2cc(=O)n(-c3ccc(OC(F)(F)F)cc3)cc2-c2cnn(C)c2)cc1` the EC50 was “in the range around 125 µM”.
With `Cc1cc(=O)n(-c2ccc(OC(F)(F)F)cc2)cc1-c1ccc(F)c(F)c1` the EC50 was “in the range around 125 µM”.
For `COc1ccc(-n2cc(-c3cn[nH]c3)ccc2=O)cc1`, the EC50 was > 200 µM.
In the case of `COc1cccc(-n2cc(Br)ccc2=O)c1`, the EC50 is reported as > 200 µM.
In the case of `Cc1cc(=O)n(-c2ccc(Cl)cc2)cc1-c1ccnnc1`, the EC50 is reported as > 200 µM.
For `NS(=O)(=O)c1ccc(-c2ccc(=O)n(-c3ccc(Cl)cc3)c2)cc1`, the EC50 was > 200 µM.
In the case of `Cn1cc(-c2c[nH]c(=O)c3[nH]nnc23)cn1`, the EC50 is reported as > 200 µM.
In the case of `CCn1nnc2c(-c3cn[nH]c3)cn(-c3ccc(OC(F)(F)F)cc3)c(=O)c21`, the EC50 is reported as < 50 µM.
For `Cn1cc(-c2ccc(=O)n(-c3ccc(OC(F)(F)F)cc3)n2)cn1`, the EC50 was > 200 µM.
For `CCOc1ccc(-n2cc(-c3ccnnc3)c(C)cc2=O)c(C)c1`, the EC50 was < 50 µM.
For `CCn1nc2c(-c3cnn(C)c3)cn(-c3ccc(OCCOC)cc3)c(=O)c2n1`, the EC50 was “in the range around 125 µM”.
For `Cc1nc2c(=O)n(-c3ccc(OC(F)(F)F)cc3)cc(-c3cnn(C)c3)c2n1C`, the EC50 was “in the range around 125 µM”.
